Measured values as given in paper PMC7470115, “Design, synthesis and biological evaluation of novel tetrahydrothieno [2,3-c]pyridine substitued benzoyl thiourea derivatives as PAK1 inhibitors in triple negative breast cancer” (Journal of Enzyme Inhibition and Medicinal Chemistry, 2020).

These molecules were tested against PAK1 (Homo sapiens, UniProt Q13153) (assay: PAK1 enzymatic assay (Kinase-Glo Plus / ADP-Glo luminescence)). Conditions: tested in triplicate, mean ± SD; 50 µM ATP; read-out: Kinase inhibitory activity (IC50, μM) PAK1.
Chain of PAK1 (Q13153 whole entry): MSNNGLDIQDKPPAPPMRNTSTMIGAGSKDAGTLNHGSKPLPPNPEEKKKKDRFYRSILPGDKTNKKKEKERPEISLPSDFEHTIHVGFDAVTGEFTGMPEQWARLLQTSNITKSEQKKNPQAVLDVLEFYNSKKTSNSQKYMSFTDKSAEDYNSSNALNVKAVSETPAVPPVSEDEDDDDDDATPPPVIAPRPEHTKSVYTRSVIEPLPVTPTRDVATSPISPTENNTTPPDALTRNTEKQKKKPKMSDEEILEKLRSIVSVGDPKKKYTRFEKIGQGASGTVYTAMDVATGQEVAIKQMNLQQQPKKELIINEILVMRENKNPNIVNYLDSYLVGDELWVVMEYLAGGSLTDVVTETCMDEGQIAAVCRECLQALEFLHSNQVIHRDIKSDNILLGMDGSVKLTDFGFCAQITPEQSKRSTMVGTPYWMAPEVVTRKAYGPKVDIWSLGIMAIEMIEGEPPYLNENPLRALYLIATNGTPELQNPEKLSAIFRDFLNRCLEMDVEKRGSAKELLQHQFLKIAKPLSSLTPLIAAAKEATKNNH
Type: biochemical
Method: These assays were carried out as described previously. All of the enzymatic reactions were conducted at 30 °C for 40 min. The 50 µl reaction mixture contains 40 mM Tris, pH 7.4, 10 mM MgCl2, 0.1 mg/ml BSA, 1 mM DTT, 50 µM ATP, 0.2 μg/ml PAK1 and 100 uM lipid substrate. The compounds were diluted in 10% DMSO and 5 µl of the dilution was added to a 50 µl reaction so that the final concentration of DMSO is 1% in all of the reactions. The assay was performed using the Kinase-Glo Plus luminescence kinase assay kit and ADP-Glo Plus luminescence kinase assay kit. It measures kinase activity by quantitating the amount of ATP remaining in solution following a kinase reaction. The luminescent signal from the assay is correlated with the amount of ATP present and is inversely correlated with the amount of kinase activity. The IC50 values were calculated using nonlinear regression with normalised dose − response fit using Prism GraphPad software.
`CC(C)(C)OC(=O)N1CCc2c(sc(NC(=S)NC(=O)c3ccc(F)cc3)c2C(N)=O)C1` [Compound 5h, Tert-butyl-3-carbamoyl-2–(3-(4-fluorobenzoyl)thioureido)-4,7-dihydrothieno[2,3-c]pyridine-6(5H)-carboxylate] gave an IC50 of 5.33 ± 0.65 µM.
In the case of `CC(C)(C)OC(=O)N1CCc2c(sc(NC(=S)NC(=O)C3CCCCC3)c2C(N)=O)C1` [Compound 5p, Tert-butyl-3-carbamoyl-2–(3-(cyclohexanecarbonyl)thioureido)-4,7-dihydrothieno[2,3-c]pyridine-6(5H)-carboxylate], the IC50 is reported as 19.3 ± 1.85 µM.
Molecule `CC(C)(C)OC(=O)N1CCc2c(sc(NC(=S)NC(=O)c3ccc(Br)cc3)c2C(N)=O)C1` [Compound 5g, Tert-butyl-2–(3-(4-bromobenzoyl)thioureido)-3-carbamoyl-4,7-dihydrothieno[2,3-c]pyridine-6(5H)-carboxylate] has an IC50 of 9.35 ± 0.97 µM.
Work on `NC(=O)c1c(NC(=S)NC(=O)c2cccc(C(F)(F)F)c2)sc2c1CCN(C(=O)C1CCC1)C2` [Compound 7k, 6-(cyclobutanecarbonyl)-2–(3-(3-(trifluoromethyl)benzoyl)thioureido)-4,5,6,7-tetrahydrothieno[2,3-c]pyridine-3-carboxamide] yielded an IC50 of 0.68 ± 0.07 µM.
In the case of `CC(C)(C)OC(=O)N1CCc2c(sc(NC(=S)NC(=O)c3ccccc3F)c2C(N)=O)C1` [Compound 5i, Tert-butyl-3-carbamoyl-2–(3-(2-fluorobenzoyl)thioureido)-4,7-dihydrothieno[2,3-c]pyridine-6(5H)-carboxylate], the IC50 is reported as 7.82 ± 0.71 µM.
For `CC(C)(C)OC(=O)N1CCc2c(sc(NC(=S)NC(=O)Cc3cccs3)c2C(N)=O)C1` [Compound 5q, Tert-butyl-3-carbamoyl-2–(3-(2-(thiophen-2-yl)acetyl)thioureido)-4,7-dihydrothieno[2,3-c]pyridine-6(5H)-carboxylate], the IC50 was 15.6 ± 1.64 µM.
For `Cc1cccc(C(=O)NC(=S)Nc2sc3c(c2C(N)=O)CCN(C(=O)OC(C)(C)C)C3)c1` [Compound 5d, Tert-butyl-3-carbamoyl-2–(3-(3-methylbenzoyl)thioureido)-4,7-dihydrothieno[2,3-c]pyridine-6(5H)-carboxylate], the IC50 was 4.32 ± 0.51 µM.
With `C=C(C)C(=O)N1CCc2c(sc(NC(=S)NC(=O)c3cccc(C(F)(F)F)c3)c2C(N)=O)C1` [Compound 7i, 6-methacryloyl-2–(3-(3-(trifluoromethyl)benzoyl)thioureido)-4,5,6,7-tetrahydrothieno[2,3-c]pyridine-3-carboxamide] the IC50 was 3.42 ± 0.33 µM.
For `Cc1ccccc1C(=O)N1CCc2c(sc(NC(=S)NC(=O)c3cccc(C(F)(F)F)c3)c2C(N)=O)C1` [Compound 7a, 6–(2-methylbenzoyl)-2–(3-(3-(trifluoromethyl)benzoyl)thioureido)-4,5,6,7-tetrahydrothieno[2,3-c]pyridine-3-carboxamide], the IC50 was 10.2 ± 1.13 µM.
In the case of `NC(=O)c1c(NC(=S)NC(=O)c2cccc(C(F)(F)F)c2)sc2c1CCN(C(=O)C1CCOCC1)C2` [Compound 7n, 6-(tetrahydro-2H-pyran-4-carbonyl)-2–(3-(3-(trifluoromethyl)benzoyl)thioureido)-4,5,6,7-tetrahydrothieno[2,3-c]pyridine-3-carboxamide], the IC50 is reported as 4.87 ± 0.65 µM.
Molecule `NC(=O)c1c(NC(=S)NC(=O)c2cccc(C(F)(F)F)c2)sc2c1CCN(C(=O)CCCl)C2` [Compound 7g, 6–(3-chloropropanoyl)-2–(3-(3-(trifluoromethyl)benzoyl)thioureido)-4,5,6,7-tetrahydrothieno[2,3-c]pyridine-3-carboxamide] has an IC50 of 5.75 ± 0.63 µM.
Work on `CC(C)(C)OC(=O)N1CCc2c(sc(NC(=S)NC(=O)c3ccccc3)c2C(N)=O)C1` [Compound 5a, Tert-butyl-2–(3-benzoylthioureido)-3-carbamoyl-4,7-dihydrothieno[2,3-c]pyridine-6(5H)-carboxylate] yielded an IC50 of 7.64 ± 0.72 µM.
With `Cc1cc(C)c(C(=O)NC(=S)Nc2sc3c(c2C(N)=O)CCN(C(=O)OC(C)(C)C)C3)c(C)c1` [Compound 5e, Tert-butyl-3-carbamoyl-2–(3-(2,4,6-trimethylbenzoyl)thioureido)-4,7-dihydrothieno[2,3-c]pyridine-6(5H)-carboxylate] the IC50 was 11.2 ± 1.01 µM.
For `CC(C)C(=O)N1CCc2c(sc(NC(=S)NC(=O)c3cccc(C(F)(F)F)c3)c2C(N)=O)C1` [Compound 7e, 6-isobutyryl-2–(3-(3-(trifluoromethyl)benzoyl)thioureido)-4,5,6,7-tetrahydrothieno[2,3-c]pyridine-3-carboxamide], the IC50 was 3.08 ± 0.29 µM.
Work on `CC(C)(C)OC(=O)N1CCc2c(sc(NC(=S)NC(=O)c3ccc(Cl)cc3)c2C(N)=O)C1` [Compound 5j, Tert-butyl-3-carbamoyl-2–(3-(4-chlorobenzoyl)thioureido)-4,7-dihydrothieno[2,3-c]pyridine-6(5H)-carboxylate] yielded an IC50 of 9.12 ± 0.95 µM.
`CC(C)(C)OC(=O)N1CCc2c(sc(NC(=S)NC(=O)c3ccccc3Cl)c2C(N)=O)C1` [Compound 5k, Tert-butyl-3-carbamoyl-2–(3-(2-chlorobenzoyl)thioureido)-4,7-dihydrothieno[2,3-c]pyridine-6(5H)-carboxylate] showed an IC50 of 8.65 ± 0.93 µM.
`CC(C)(C)OC(=O)N1CCc2c(sc(NC(=S)NC(=O)c3cccc(Cl)c3)c2C(N)=O)C1` [Compound 5l, Tert-butyl-3-carbamoyl-2–(3-(3-chlorobenzoyl)thioureido)-4,7-dihydrothieno[2,3-c]pyridine-6(5H)-carboxylate] showed an IC50 of 5.15 ± 0.54 µM.
In the case of `NC(=O)c1c(NC(=S)NC(=O)c2cccc(C(F)(F)F)c2)sc2c1CCN(C(=O)c1ccc(Cl)cc1)C2` [Compound 7b, 6–(4-chlorobenzoyl)-2–(3-(3-(trifluoromethyl)benzoyl)thioureido)-4,5,6,7-tetrahydrothieno[2,3-c]pyridine-3-carboxamide], the IC50 is reported as 13.2 ± 1.39 µM.
For `CC(C)(C)OC(=O)N1CCc2c(sc(NC(=S)NC(=O)c3cccc(Cl)c3Cl)c2C(N)=O)C1` [Compound 5o, Tert-butyl-3-carbamoyl-2–(3-(2,3-dichlorobenzoyl)thioureido)-4,7-dihydrothieno[2,3-c]pyridine-6(5H)-carboxylate], the IC50 was 7.43 ± 0.81 µM.
For `Cc1ccccc1C(=O)NC(=S)Nc1sc2c(c1C(N)=O)CCN(C(=O)OC(C)(C)C)C2` [Compound 5c, Tert-butyl-3-carbamoyl-2–(3-(2-methylbenzoyl)thioureido)-4,7-dihydrothieno[2,3-c]pyridine-6(5H)-carboxylate], the IC50 was 6.21 ± 0.69 µM.
`C/C=C/C(=O)N1CCc2c(sc(NC(=S)NC(=O)c3cccc(C(F)(F)F)c3)c2C(N)=O)C1` [Compound 7h, (E)-6-(but-2-enoyl)-2–(3-(3-(trifluoromethyl)benzoyl)thioureido)-4,5,6,7-tetrahydrothieno[2,3-c]pyridine-3-carboxamide] was tested, and the IC50 was 4.14 ± 0.51 µM.
With `CC(C)(C)OC(=O)N1CCc2c(sc(NC(=S)NC(=O)c3ccc(C(F)(F)F)cc3)c2C(N)=O)C1` [Compound 5n, Tert-butyl-3-carbamoyl-2–(3-(4-(trifluoromethyl)benzoyl)thioureido)-4,7-dihydrothieno[2,3-c]pyridine-6(5H)-carboxylate] the IC50 was 12.1 ± 1.35 µM.
In the case of `NC(=O)c1c(NC(=S)NC(=O)c2cccc(C(F)(F)F)c2)sc2c1CCN(C(=O)C1CCCCC1)C2` [Compound 7m, 6-(cyclohexanecarbonyl)-2–(3-(3-(trifluoromethyl)benzoyl)thioureido)-4,5,6,7-tetrahydrothieno[2,3-c]pyridine-3-carboxamide], the IC50 is reported as 4.55 ± 0.51 µM.
`COc1ccc(C(=O)NC(=S)Nc2sc3c(c2C(N)=O)CCN(C(=O)OC(C)(C)C)C3)cc1` [Compound 5f, Tert-butyl-3-carbamoyl-2–(3-(4-methoxybenzoyl)thioureido)-4,7-dihydrothieno[2,3-c]pyridine-6(5H)-carboxylate] gave an IC50 of 16.4 ± 1.78 µM.
`CC(C)(C)OC(=O)N1CCc2c(sc(NC(=S)NC(=O)c3cccc(C(F)(F)F)c3)c2C(N)=O)C1` [Compound 5m, Tert-butyl-3-carbamoyl-2–(3-(3-(trifluoromethyl)benzoyl)thioureido)-4,7-dihydrothieno[2,3-c]pyridine-6(5H)-carboxylate] showed an IC50 of 2.02 ± 0.27 µM.
In the case of `CC(C)CC(=O)N1CCc2c(sc(NC(=S)NC(=O)c3cccc(C(F)(F)F)c3)c2C(N)=O)C1` [Compound 7f, 6–(3-methylbutanoyl)-2–(3-(3-(trifluoromethyl)benzoyl)thioureido)-4,5,6,7-tetrahydrothieno[2,3-c]pyridine-3-carboxamide], the IC50 is reported as 3.87 ± 0.35 µM.
`NC(=O)c1c(NC(=S)NC(=O)c2cccc(C(F)(F)F)c2)sc2c1CCN(C(=O)C1CCCC1)C2` [Compound 7l, 6-(cyclopentanecarbonyl)-2–(3-(3-(trifluoromethyl)benzoyl)thioureido)-4,5,6,7-tetrahydrothieno[2,3-c]pyridine-3-carboxamide] gave an IC50 of 1.09 ± 0.09 µM.
With `Cc1ccc(C(=O)NC(=S)Nc2sc3c(c2C(N)=O)CCN(C(=O)OC(C)(C)C)C3)cc1` [Compound 5b, Tert-butyl-3-carbamoyl-2–(3-(4-methylbenzoyl)thioureido)-4,7-dihydrothieno[2,3-c]pyridine-6(5H)-carboxylate] the IC50 was 7.28 ± 0.78 µM.
